{"source": "patent US5109011A", "about": "“P-acylaminophenoxycarbamates and derivatives” (Hoechst-Roussel Pharmaceuticals Incorporated, priority 1990, dated 1992)", "data": [{"system": "phenyl-para-quinone induced writhing", "experiment": "phenyl-para-quinone writhing assay in mice (analgesia)", "format": "in vivo", "settings": "Mus musculus, oral, read-out: Analgesic Activity ED50 (oral dose at which 50% of the phenyl-para-quinone induced writhing is inhibited)", "description": "Exptl. Biol. Med., 95,729 (1957)]. Presented in Table I is the analgesic effect of some of the compounds of the invention expressed as the oral dose at which 50% of the phenyl-para-quinone induced writhing is inhibited in the animals, i.e., the ED50 value.", "units": {"ED50": "mg/kg"}, "values": [{"smiles": "CC(=O)Nc1ccc(O)cc1", "note": "[Acetaminophen, reference compound]", "ED50": 33.8}, {"smiles": "CC(=O)Nc1ccc(OC(=O)N(C)O)cc1", "note": "[4-(Acetylamino)phenyl-N-hydroxy-N-methyl carbamate]", "ED50": 32.3}, {"smiles": "CC(=O)Nc1ccc(OC(=O)N(C)OCc2ccccc2)cc1", "note": "[4-(acetylamino)phenyl-N-benzyloxy-N-methyl carbamate]", "ED50": 28.5}, {"smiles": "CC(=O)Nc1ccc(OC(=O)N(C)OC(C)=O)cc1", "note": "[4-(Acetylamino)phenyl-N-(acetyloxy)-N-methyl carbamate]", "ED50": 42.7}]}]}
